Results from publication PMC10114980, “Triple targeting of mutant EGFR^L858R/T790M, COX-2, and 15-LOX: design and synthesis of novel quinazolinone tethered phenyl urea derivatives for anti-inflammatory and anticancer evaluation” (Journal of Enzyme Inhibition and Medicinal Chemistry, 2023).

Columns and labels:
TK-10 = assay: NCI single dose screen, TK-10; assay type: cell-based; details: Homo sapiens; TK-10, renal cancer; single dose 10^−5 M; read-out: growth inhibition percentage
Protocol: (§1) Screening of the anticancer activity of the newly synthesised compounds (6a, 6c, 6d, 6e, 6j, 6l, 6m, 6n, 6o, and 6p) was performed by the US National Cancer Institute (NCI) using 60 different human tumour cell lines in accordance with standard procedures formerly reported.
(§2) In vitro anticancer screening was carried out for the selected compounds at a single dose (10^−5 M) against 60 different human tumour cell lines of nine different cancer cell types: leukaemia, lung, colon, CNS, melanoma, ovarian, renal, prostate, and breast cancers.

SK-MEL-5 = assay: NCI single dose screen, SK-MEL-5; assay type: cell-based; details: Homo sapiens; SK-MEL-5, melanoma; single dose 10^−5 M; read-out: growth inhibition percentage
Protocol: as §1, §2

ACHN = assay: NCI single dose screen, ACHN; assay type: cell-based; details: Homo sapiens, renal cancer, single dose 10^−5 M, read-out: growth inhibition percentage
Protocol: as §1, §2

MDA-MB-468 = assay: NCI single dose screen, MDA-MB-468; assay type: cell-based; details: Homo sapiens; MDA-MB-468, breast cancer; single dose 10^−5 M; read-out: growth inhibition percentage
Protocol: as §1, §2

MOLT-4 = assay: NCI single dose screen, MOLT-4; assay type: cell-based; details: Homo sapiens; MOLT-4, leukaemia; single dose 10^−5 M; read-out: growth inhibition percentage
Protocol: as §1, §2

NCI-H522 = assay: NCI single dose screen, NCI-H522; assay type: cell-based; details: Homo sapiens; NCI-H522, non-small cell lung cancer; single dose 10^−5 M; read-out: growth inhibition percentage
Protocol: as §1, §2

[1] = system: 60 NCI cancer cell lines panel; assay: NCI 60 cell lines panel single dose screen, whole panel; assay type: cell-based, human; details: single dose 10^−5 M; for inhibition at 10 µM: Homo sapiens, 60 cell, read-out: growth inhibition percentages range over the sensitive cell lines; for number of cell lines with anticancer activity out of the 60 NCI cell lines: GI higher than 10%
Protocol: as §1, §2

With `CN1c2ccccc2C(=O)N(NC(=O)Nc2ccccc2)C1c1ccc(F)cc1` (stereo not shown) [Compound 6d, 1-(2-(4-Fluorophenyl)-1-methyl-4-oxo-1,4-dihydroquinazolin-3(2H)-yl)-3-phenylurea] the inhibition at 10 µM (TK-10) was under 10%, the inhibition at 10 µM (SK-MEL-5) was under 10% and the inhibition at 10 µM (ACHN) was under 10%. For the same molecule, the inhibition at 10 µM (MDA-MB-468) was under 10%, the inhibition at 10 µM (MOLT-4) was 11.1% and the inhibition at 10 µM (NCI-H522) was under 10%.
`CN1c2ccccc2C(=O)N(NC(=O)Nc2ccc(F)cc2)C1c1ccc([N+](=O)[O-])cc1` (stereo not shown) [Compound 6o, 1-(4-Fluorophenyl)-3–(1-methyl-2-(4-nitrophenyl)-4-oxo-1,4-dihydroquinazolin-3(2H)-yl)urea] was tested, and the inhibition at 10 µM (TK-10) was under 10%, the inhibition at 10 µM (SK-MEL-5) was 13.7% and the inhibition at 10 µM (ACHN) was under 10%. The inhibition at 10 µM (MDA-MB-468) was under 10%, the inhibition at 10 µM [1] was 10.7 to 41.3% and the “number of cell lines with anticancer activity out of the 60 NCI cell lines” value (“number of cell lines” below) [1] was 21. The inhibition at 10 µM (MOLT-4) was 20.4% and the inhibition at 10 µM (NCI-H522) was under 10%.
Work on `COc1ccc(NC(=O)NN2C(=O)c3ccccc3N(C)C2c2ccc(OC)cc2)cc1` (stereo not shown) [Compound 6j, 1-(4-Methoxyphenyl)-3-(2-(4-methoxyphenyl)-1-methyl-4-oxo-1,4-dihydroquinazolin-3(2H)-yl)urea] yielded an inhibition at 10 µM (TK-10) of under 10%, an inhibition at 10 µM (SK-MEL-5) of under 10% and an inhibition at 10 µM (ACHN) of under 10%. The inhibition at 10 µM (MDA-MB-468) was under 10%, the inhibition at 10 µM (MOLT-4) was under 10% and the inhibition at 10 µM (NCI-H522) was under 10%.
Molecule `CC1N(NC(=O)Nc2ccc(F)cc2)C(=O)c2ccccc2N1C` (stereo not shown) [Compound 6l, 1–(1,2-Dimethyl-4-oxo-1,4-dihydroquinazolin-3(2H)-yl)-3-(4-fluorophenyl)urea] has an inhibition at 10 µM (TK-10) of 15.4%, an inhibition at 10 µM (SK-MEL-5) of under 10% and an inhibition at 10 µM (ACHN) of under 10%. The inhibition at 10 µM (MDA-MB-468) was under 10%, the inhibition at 10 µM (MOLT-4) was under 10% and the inhibition at 10 µM (NCI-H522) was under 10%.
In the case of `CN1c2ccccc2C(=O)N(NC(=O)Nc2ccc(F)cc2)C1c1ccc(F)cc1` (stereo not shown) [Compound 6n, 1-(4-Fluorophenyl)-3-(2–(4-fluorophenyl)-1-methyl-4-oxo-1,4-dihydroquinazolin-3(2H)-yl)urea], the inhibition at 10 µM (TK-10) is reported as under 10%, the inhibition at 10 µM (SK-MEL-5) is reported as 20.3% and the inhibition at 10 µM (ACHN) is reported as 12.6%. The inhibition at 10 µM (MDA-MB-468) was under 10%, the inhibition at 10 µM [1] was 10.1 to 57.1% and the “number of cell lines” value [1] was 32. For the same molecule, the inhibition at 10 µM (MOLT-4) was 43.1% and the inhibition at 10 µM (NCI-H522) was under 10%.
Work on `COc1ccc(C2N(NC(=O)Nc3ccc(F)cc3)C(=O)c3ccccc3N2C)cc1` (stereo not shown) [Compound 6p, 1-(4-Fluorophenyl)-3-(2–(4-methoxyphenyl)-1-methyl-4-oxo-1,4-dihydroquinazolin-3(2H)-yl)urea] yielded an inhibition at 10 µM (TK-10) of under 10%, an inhibition at 10 µM (SK-MEL-5) of under 10% and an inhibition at 10 µM (ACHN) of under 10%. It also gave an inhibition at 10 µM (MDA-MB-468) of under 10%, an inhibition at 10 µM (MOLT-4) of 11.2% and an inhibition at 10 µM (NCI-H522) of under 10%.
`CN1CN(NC(=O)Nc2ccccc2)C(=O)c2ccccc21` [Compound 6a, 1-(1-Methyl-4-oxo-1,4-dihydroquinazolin-3(2H)-yl)-3-phenylurea] showed an inhibition at 10 µM (TK-10) of under 10%, an inhibition at 10 µM (SK-MEL-5) of under 10% and an inhibition at 10 µM (ACHN) of under 10%. The inhibition at 10 µM (MDA-MB-468) was under 10%, the “anticancer activity in the NCI 60 panel (in words)” value [1] was “did not show any anticancer activities” and the inhibition at 10 µM (MOLT-4) was under 10%. The inhibition at 10 µM (NCI-H522) was under 10%.
In the case of `CN1c2ccccc2C(=O)N(NC(=O)Nc2ccc(F)cc2)C1c1ccccc1` (stereo not shown) [Compound 6m, 1-(4-Fluorophenyl)-3-(1-methyl-4-oxo-2-phenyl-1,4-dihydroquinazolin-3(2H)-yl)urea], the inhibition at 10 µM (TK-10) is reported as under 10%, the inhibition at 10 µM (SK-MEL-5) is reported as 15.9% and the inhibition at 10 µM (ACHN) is reported as under 10%. The inhibition at 10 µM (MDA-MB-468) was under 10%, the inhibition at 10 µM [1] was 10.5 to 40.1% and the “number of cell lines” value [1] was 19. The inhibition at 10 µM (MOLT-4) was 23.5% and the inhibition at 10 µM (NCI-H522) was under 10%.
`CN1c2ccccc2C(=O)N(NC(=O)Nc2ccccc2)C1c1ccccc1` (stereo not shown) [Compound 6c, 1-(1-Methyl-4-oxo-2-phenyl-1,4-dihydroquinazolin-3(2H)-yl)-3-phenylurea] was tested, and the inhibition at 10 µM (TK-10) was under 10%, the inhibition at 10 µM (SK-MEL-5) was under 10% and the inhibition at 10 µM (ACHN) was under 10%. The inhibition at 10 µM (MDA-MB-468) was under 10%, the inhibition at 10 µM (MOLT-4) was under 10% and the inhibition at 10 µM (NCI-H522) was under 10%.
Molecule `CN1c2ccccc2C(=O)N(NC(=O)Nc2ccccc2)C1c1ccc([N+](=O)[O-])cc1` (stereo not shown) [Compound 6e, 1-(1-Methyl-2-(4-nitrophenyl)-4-oxo-1,4-dihydroquinazolin-3(2H)-yl)-3-phenylurea] has an inhibition at 10 µM (TK-10) of under 10%, an inhibition at 10 µM (SK-MEL-5) of under 10% and an inhibition at 10 µM (ACHN) of under 10%. It also gave an inhibition at 10 µM (MDA-MB-468) of under 10%, an inhibition at 10 µM (MOLT-4) of under 10% and an inhibition at 10 µM (NCI-H522) of under 10%.
